Legend:
HBV [1] = test: Inhibition of intracellular HBV virus invasion, HBeAg ELISA analysis; format: cell-based; details: 20 µM, HepG2-NTCP cell line, HBV 3000 Geq/cell, O.D. at 450 nm
Protocol: (§1) In order to evaluate the ability to inhibit intracellular HBV virus entry (invasion), Enzyme-linked immunosorbent assay (ELISA) analysis to measure HBeAg, which is associated with high infectivity as an antigen in the HBV virus core portion, and Southern blot analysis to measure DNA of HBV were performed.
(§2) Specifically, the HepG2-NTCP cell line was cultured on a 6-well plate, incubation was performed overnight, HBV inhibitors were treated at a concentration of 20 µM, and the positive control Myrcludex-B (MyrB) was treated at a concentration of 200 nM, followed by culture for 24 hours. After HBV infection into the cells to make HBV 3000 genome equivalent per ml/cell (Geq/cell), the cell culture medium was replaced (medium changing, MC) a day after the viral infection to remove the virus unattached to cell membranes. In order to measure an amount of virus that entered the cell, medium changing (MC) was performed once more 4 days after viral infection. 2 days after replacement, HBeAg ELISA analysis was performed using a supernatant, and Southern blot analysis was performed with cell pellets.
HBeAg ELISA analysis was performed using an HBeAg ELISA kit (sanbio, Wantai HBeAg ELISA, cat#WB-2496) for the supernatant obtained by the method in Experimental Example 4-1.
First, a negative control group (Mock), positive control group (MyrB), and samples according to the present disclosure were loaded, by 50 µl each to be triplicate, onto a 96-well plate coated with capture Ab. In this case, Example 1 (LCA-ILE), Example 44 (LCA-Val), Example 52 (LCA-Tyr), Example 51 (LCA-Ser), Example 55 (LCA-Glu), Example 2 (UDCA-Ile), Example 3 (UDCA-Val), Example 25 (LCA-Val-Trp), Example 10 (DCA-Ile), Comparative Example 1 (LCA), and Comparative Example 2 (UDCA) were used as the sample.
The HRP-conjugated detection antibody was loaded into each well by 50 µl, followed by a reaction at 37°C for 30 minutes. Washing buffer (1X PBS, 0.5% Tween20) was added by 200 µl, and washing was performed 5 times. 50 µl of chromogen solution A and 50 µl of chromogen solution B were added to each well, and a reaction was carried out in the darkness at 37°C for 15 minutes. The stop solution was added to each well by 50 µl each to stop the reaction, and the amount of HBeAg was measured by measuring the absorbance (optical density, O.D.) level in the 450 nm wavelength band.

HBV [2] = test: Inhibition of intracellular HBV virus invasion, Southern blot analysis; format: cell-based; details: for amount of HBeAg DNA detected compared to the negative control group (Mock): 20 µM, HepG2-NTCP cell line, HBV 3000 Geq/cell; for activity at 20 µM: Hepatitis B virus, read-out: relative replication rate of quantified HBeAg DNA to the negative control group (Mock), 20 µM, HepG2-NTCP cell line, HBV 3000 Geq/cell
Protocol: as §1, §2
For the cell pellet obtained by the method of Experimental Example 4-1, Southern blot analysis for measurement of […] DNA was performed using Example 1 (LCA-Ile), Example 44 (LCA-Val), Example 52 (LCA-Tyr), Example 51 (LCA-Ser), Example 55 (LCA-Glu), Example 2 (UDCA-Ile), Example 3 (UDCA-Val), Example 25 (LCA-Val-Trp), Example 10 (DCA-Ile), Comparative Example 1 (LCA), and Comparative Example 2 (UDCA).
First, the cell pellets were pipetted with 100 µl of HEPES lysis buffer (10 mM HEPES, 100 mM NaCl, 1 mM EDTA, 1% NP-40), placed on ice for 20 minutes, and then centrifuged with a centrifuge under the conditions at 4°C and 13000 rpm. After transferring the supernatant only to the new microtube, 4.5 µl of nuclease buffer I (10 mM CaCl2, 12 mM MgCl2, DNase 10 units) was added to carry out a reaction at 37°C for 2 hours, and 40 µl of 26% PEG solution was added, followed by a reaction on ice for 1 hour. After centrifuging with the centrifuge at 4°C and 13000 rpm for 30 minutes, and the supernatant was removed cleanly. After releasing the pellets with 100 µl of nuclease buffer II (10 mM Tris, 8 mM CaCl2, 6mM MgCl2), 287.5 µl of 0.5% SDS buffer (25 mM Tris, 10 mM EDTA, 0.5% SDS, 100 mM NaCl) was added, and 12.5 µl of 20 mg/ml proteinase K was added, followed by a reaction at 37°C for 2 hours. 400 µl of phenol-chloroform-isoamyl alcohol was added, centrifugation was performed at room temperature at 13000 rpm after voltexing, the supernatant was transferred to a new tube, 40 µl of 3 M NaOAc was added, and 800 µl of 100% ethanol was added for inverting, followed by a reaction overnight at -20°C. After performing centrifugation at 4°C and 13000 rpm for 30 minutes, 800 µl of 70% ethanol was added and mixed to the pellet obtained by removing the supernatant, centrifugation was performed at 4°C and 13000 rpm for 10 minutes, and then the supernatant was discarded. The ethanol was dried for 5 minutes to leave only the HBV DNA pellets, and then the pellets were dissolved again in 15 µl of TE buffer (10 mM Tris, 1 mM EDTA). HBV DNA samples were loaded in 1% agarose gel, and electrophoresis was performed. It was then immersed in denature buffer (0.25 N NaOH, 1 M NaCl) for 30 minutes to denature dsDNA of HBV into ssDNA. The DNA in the gel was transferred to a Nylon membrane using a transfer buffer (0.4 M NaOH), the membrane was soaked with a 2X SSC buffer (sigma, cat# 85639) for neutralization, followed by drying in air. The membrane was immersed in a church buffer (10% BSA, 0.5 M EDTA, 1 M NaPi, 20% SDS), and the radioisotopes were hybridized using a Mega prime kit (GE healthcare, RPN1607). After washing three times with washing buffer (2X SSC, 0.1% SDS), measurement was performed using radioisotope measurement equipment, and a relative replication rate (%) to the negative control group (Mock) was calculated and shown.

SMILES	HBeAg absorbance level compared with Comparative Example 1 (LCA) and Comparative Example 2 (UDCA) (HBV [1])	HBeAg absorbance level compared with the negative control group (Mock) (HBV [1])	amount of HBeAg DNA detected compared to the negative control group (Mock) (HBV [2])	activity at 20 µM (HBV [2]) [%]
CC[C@@H](C)[C@H](NC(=O)CC[C@@H](C)[C@H]1CC[C@H]2[C@@H]3CC[C@@H]4C[C@H](O)CC[C@]4(C)[C@H]3C[C@H](O)[C@]12C)C(=O)O [Example 10, (2S,3R)-2-((R)-4-((3R,5R,8R,9S,10S,12S,13R,14S,17R)-3,12-dihydroxy-10,13-dimethyl-hexadecahydro-1H-cyclopenta[a]phenanthren-17-yl)pentanamido)-3-methylpentanoic acid]	lower	relatively lower	relatively less amount	< 80
CC(C)[C@H](NC(=O)CC[C@@H](C)[C@H]1CC[C@H]2[C@@H]3CC[C@@H]4C[C@H](O)CC[C@]4(C)[C@H]3CC[C@]12C)C(=O)N[C@@H](Cc1c[nH]c2ccccc12)C(=O)O [Example 25, (S)-2-((S)-2-((R)-4-((3R,5R,8R,9S,10S,13R,14S,17R)-3-hydroxy-10,13-dimethyl-hexadecahydro-1H-cyclopenta[a]phenanthren-17-yl)pentanamido)-3-methylbutanamido)-3-(1H-indol-3-yl)propanoic acid]			relatively less amount	
CC(C)[C@H](NC(=O)CC[C@@H](C)[C@H]1CC[C@H]2[C@@H]3CC[C@@H]4C[C@H](O)CC[C@]4(C)[C@H]3CC[C@]12C)C(=O)O [Example 44, (S)-2-((R)-4-((3R,5R,8R,9S,10S,13R,14S,17R)-3-hydroxy-10,13-dimethyl-hexadecahydro-1H-cyclopenta[a]phenanthren-17-yl)pentanamido)-3-methylbutanoic acid]	lower	relatively lower	relatively less amount	< 80
C[C@H](CCC(=O)N[C@@H](CCC(=O)O)C(=O)O)[C@H]1CC[C@H]2[C@@H]3CC[C@@H]4C[C@H](O)CC[C@]4(C)[C@H]3CC[C@]12C [Example 55, (S)-2-((R)-4-((3R,5R,8R,9S,10S,13R,14S,17R)-3-hydroxy-10,13-dimethyl-hexadecahydro-1H-cyclopenta[a]phenanthren-17-yl)pentanamido)pentanedioic acid]			relatively less amount	
C[C@H](CCC(=O)N[C@@H](CO)C(=O)O)[C@H]1CC[C@H]2[C@@H]3CC[C@@H]4C[C@H](O)CC[C@]4(C)[C@H]3CC[C@]12C [Example 51, (S)-3-hydroxy-2-((R)-4-((3R,5R,8R,9S,10S,13R,14S,17R)-3-hydroxy-10,13-dimethyl-hexadecahydro-1H-cyclopenta[a]phenanthren-17-yl)pentanamido)propanoic acid]		relatively lower		
CC[C@@H](C)[C@H](NC(=O)CC[C@@H](C)[C@H]1CC[C@H]2[C@@H]3[C@@H](O)C[C@@H]4C[C@H](O)CC[C@]4(C)[C@H]3CC[C@]12C)C(=O)O [Example 2, (2S,3R)-2-((R)-4-((3R,5S,7S,8R,9S,10S,13R,14S,17R)-3,7-dihydroxy-10,13-dimethyl-hexadecahydro-1H-cyclopenta[a]phenanthren-17-yl)pentanamido)-3-methylpentanoic acid]	lower	relatively lower	relatively less amount	< 80
C[C@H](CCC(=O)N[C@@H](Cc1ccc(O)cc1)C(=O)O)[C@H]1CC[C@H]2[C@@H]3CC[C@@H]4C[C@H](O)CC[C@]4(C)[C@H]3CC[C@]12C [Example 52, (S)-2-((R)-4-((3R,5R,8R,9S,10S,13R,14S,17R)-3-hydroxy-10,13-dimethyl-hexadecahydro-1H-cyclopenta[a]phenanthren-17-yl)pentanamido)-3-(4-hydroxyphenyl)propanoic acid]			relatively less amount	< 80
CC(C)[C@H](NC(=O)CC[C@@H](C)[C@H]1CC[C@H]2[C@@H]3[C@@H](O)C[C@@H]4C[C@H](O)CC[C@]4(C)[C@H]3CC[C@]12C)C(=O)O [Example 3, (S)-2-((R)-4-((3R,5S,7S,8R,9S,10S,13R,14S,17R)-3,7-dihydroxy-10,13-dimethyl-hexadecahydro-1H-cyclopenta[a]phenanthren-17-yl)pentanamido)-3-methylbutanoic acid]	lower	relatively lower	relatively less amount	< 80
